From US20240383874A1, “BENZENE RING DERIVATIVE, AND COMPOSITION AND PHARMACEUTICAL USE THEREOF” (Xizang Haisco Pharmaceutical Co., Ltd., priority 2020, published 2024)
Structures can show the parent of a compound that is named as a salt. Where two headings read alike, the source gives them in different places.

Tests used:
full-length AR (AR-FL) = test: Degradation experiment on full-length AR (AR-FL) in 22RV1 cells; format: cell-based; conditions: 24 h, relative to vehicle control
Description: (§1) Prostate cancer cells 22RV1 were purchased from ATCC, the cell medium was 1640+10% FBS, and the cells were cultured in an incubator at 37° C. under 5% CO2. On day 1, the cells in an exponential phase were collected. With a 1% css-FBS phenol red-free medium, the cell suspension was adjusted to a corresponding concentration and plated into a 6-well plate at 1 mL/well and 100000 cells/well. The next day, a 1% css-FBS phenol-free medium containing the compound to be tested was added, a 1% css-FBS phenol-free medium containing 0.2% DMSO was added to one well as DMSO vehicle control, and the 6-well plate was cultured in an incubator at 37° C. under 5% CO2. After 24 h, the cells were digested with pancreatin and collected into a 1.5 mL centrifuge tube. 15 μL of RIPA lysate (containing 1×protease inhibitor cocktail) was added to each well, and the cells were lysed on ice for 15 min and then centrifuged at 12000 g and 4° C. for 10 min. The supernatant protein samples were collected, and protein quantification was performed by a BCA method. AR-FL and AR-Vs were detected using fully automatic protein expression quantitative analysis, which involved diluting the protein to be tested to 1 mg/mL. 4 μL of the diluted protein samples were added to 1 μL of 5×Master Mix (provided in the kit), and the prepared samples were denatured at 95° C. for 5 min and placed on ice for use. The primary antibodies, AR (CST, 5153S) and β-actin (CST, 3700), were diluted with Antibody Diluent II (provided in the kit) at a dilution ratio of 1:20 and 1:200, respectively. The secondary antibody was a mixed goat anti-mouse and goat anti-rabbit secondary antibody in a ratio of 1:1, and the color development solution was a mixed solution of Lumino-S and Peroxide in a ratio of 1:1. The prepared reagents were successively added to an assay plate according to instructions of the kit and detected on an instrument. Western blot band processing was performed using “Compass for SW”, a fully automatic protein expression quantitative analysis software, in which western blot bands were automatically simulated based on signal values. The degradation rate of AR-FL (3) or AR-Vs (4) relative to vehicle control at different compound concentrations was calculated according to formulas (3) and (4), wherein AR-FLcompound was the relative peak area of AR-FL in the treated group, and AR-FLsolvent was the relative peak area of AR-FL in the vehicle control group; AR-Vscompound was the relative peak area of AR-Vs in the treated group, and AR-Vssolvent was the relative peak area of AR-Vs in the vehicle control group.
(§2) DC50 calculation: the compound concentration DC50 values at which the degradation rate of AR-FL or AR-Vs was 50% were calculated using OriginPro2015 software and analyzed using DoseResp function according to formula (3) or (4).

[1] = system: AR splice variants (AR-Vs); test: Degradation experiment on AR splice variants (AR-Vs) in 22RV1 cells; format: cell-based; conditions: 24 h, relative to vehicle control
Description: as §1, §2

22RV1 cells = test: Experiment 2 on inhibiting 22RV1 cell proliferation (7 days, CellTiter-Glo); format: cell-based; conditions: 1% css-FBS phenol red-free medium, incubated with compound 7 days, read-out: IC50 values on proliferation inhibition of 22RV1 cells
In short: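 22RV1 cells plated at 2000/well in phenol red-free medium with 1% css-FBS and treated next day with compound for 7 days at 37 °C. Viability read by CellTiter-Glo luminescence relative to DMSO vehicle; IC50 from dose-response fit.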

[2] = Pharmacokinetic test in rats; format: in vivo; conditions: rat, po; male SD rats, single dose i.g. 5 mg/kg, plasma, 0-24 h
Description: Test objective: in this test, a single dose of test compounds was administered to SD rats intragastrically, and the concentrations of the test compounds in plasma of the rats were measured to evaluate pharmacokinetic characteristics of the test compounds in the rats.
Test animals: male SD rats, 200-250 g, 6-8 weeks old, 3 rats/compound, purchased from Chengdu Dossy Experimental Animals Co., Ltd.
Test method: on the day of the test, 3 SD rats were randomly grouped according to their body weights. The animals were fasted with water available for 12 to 14 hours one day before the administration of a test compound, and were fed 4 hours after the administration.
Sampling: before and after the administration, 0.1 mL of blood was taken from the orbits of the rats under isoflurane anesthesia, and placed in an EDTAK2 centrifuge tube. Centrifugation was carried out at 5000 rpm at 4C for […], and the plasma was collected.
Time points for plasma collection in G1 group: 0, 5 min, 15 min, 30 min, 1 h, 2 h, 4 h, 6 h, 8 h, and 24 h.
Before analysis and detection, all samples were stored at −80° C. The samples were analyzed quantitatively by LC-MS/MS.

IC50 (22RV1 cells) [nM]	AUC(0-t) [2] [ng·h/mL]	IC50 (22RV1 cells; Homo sapiens, 22Rv1, 168 h) [nM]	SMILES	AR-FL Dmax % (maximum degradation rate) (full-length AR (AR-FL)) [%]	AR-Vs Dmax % (maximum degradation rate) [1] [%]
			CC(C)(c1ccc(OCc2ccnc(N3CCN(C4CCN(C5CN(c6ccc7c(c6)C(=O)N(C6CCC(=O)NC6=O)C7=O)C5)CC4)CC3)n2)cc1)c1cc(Cl)c(OCCCl)c(C#N)c1 (centres unmarked) [Compound 5 trifluoroacetate, 3-chloro-2-(2-chloroethoxy)-5-(2-(4-((2-(4-(1-(1-(2-(2,6-dioxopiperidin-3-yl)-1,3-dioxoisoindolin-5-yl)azetidin-3-yl)piperidin-4-yl)piperazin-1-yl)pyrimidin-4-yl)methoxy)phenyl)propan-2-yl)benzonitrile (Compound 5) trifluoroacetate]	52.5	
			Cn1c(=O)n(C2CCC(=O)NC2=O)c2cccc(CN3CC(N4CCC(N5CCN(c6nccc(COc7ccc(C(C)(C)c8cc(Cl)c(OCCCl)c(C#N)c8)cc7)n6)CC5)CC4)C3)c21 (centres unmarked) [Compound 6 trifluoroacetate, 3-chloro-2-(2-chloroethoxy)-5-(2-(4-((2-(4-(1-(1-((1-(2,6-dioxopiperidin-3-yl)-3-methyl-2-oxo-2,3-dihydro-1H-benzol[d]imidazol-4-yl)methyl)azetidin-3-yl)piperidin-4-yl)piperazin-1-yl)pyrimidin-4-yl)methoxy)phenyl)propan-2-yl)benzonitrile (Compound 6) trifluoroacetate]	57.6	
			Cn1c(=O)n(C2CCC(=O)NC2=O)c2cccc(CN3CC(N4CCC(N5CCN(c6nccc(COc7ccc(C(C)(C)c8cc(Cl)cc(C#N)c8)cc7)n6)CC5)CC4)C3)c21 (centres unmarked) [Compound 9 trifluoroacetate, 3-chloro-5-(2-(4-((2-(4-(1-(1-((1-(2,6-dioxopiperidin-3-yl)-3-methyl-2-oxo-2,3-dihydro-1H-benzo[d]imidazol-4-yl)methyl)azetidin-3-yl)piperidin-4-yl)piperazin-1-yl)pyrimidin-4-yl)methoxy)phenyl)propan-2-yl)benzonitrile (Compound 9) trifluoroacetate]	68.3	76.8
562			CC(C)(c1ccc(OCc2ccnc(N3CCN(C4CCN(C5CN(c6ccc7c(c6)C(=O)N(C6CCC(=O)NC6=O)C7=O)C5)CC4)CC3)n2)cc1)c1cc(Cl)cc(C#N)c1 (centres unmarked) [Compound 10, 3-chloro-5-(2-(4-((2-(4-(1-(1-(2-(2,6-dioxopiperidin-3-yl)-1,3-dioxoisoindolin-5-yl)azetidin-3-yl)piperidin-4-yl)piperazin-1-yl)pyrimidin-4-yl)methoxy)phenyl)propan-2-yl)benzonitrile]		64
452			CCOc1c(Cl)cc(C(C)(C)c2ccc(OCc3ccnc(N4CCN(C5CCN(C6CN(Cc7cccc8c7n(C)c(=O)n8C7CCC(=O)NC7=O)C6)CC5)CC4)n3)cc2)cc1C#N (centres unmarked) [Compound 18, 3-chloro-5-(2-(4-((2-(4-(1-(1-((1-(2,6-dioxopiperidin-3-yl)-3-methyl-2-oxo-2,3-dihydro-1H-benzo[d]imidazol-4-yl)methyl)azetidin-3-yl)piperidin-4-yl)piperazin-1-yl)pyrimidin-4-yl)methoxy)phenyl)propan-2-yl)-2-ethoxybenzonitrile]	53	91
	563 ± 350	446	CC(C)(c1ccc(OCc2ccnc(N3CCC(CN4CCC(C5CCN(c6ccc(C(=O)NC7CCC(=O)NC7=O)nc6)CC5)CC4)CC3)n2)cc1)c1cc(Cl)cc(C#N)c1 (centres unmarked) [Compound 110 trifluoroacetate, 5-(1′-((1-(4-((4-(2-(3-chloro-5-cyanophenyl)propan-2-yl)phenoxy)methyl)pyrimidin-2-yl)piperidin-4-yl)methyl)-[4,4′-bipiperidin]-1-yl)-N-(2,6-dioxopiperidin-3-yl)picolinamide]		56
		821	COc1c(Cl)cc(C(C)(C)c2ccc(OCc3ccnc(N4CCC(CN5CCC(N6CCC(c7ccc8c(c7)n(C)c(=O)n8C7CCC(=O)NC7=O)CC6)CC5)CC4)n3)cc2)cc1C#N (centres unmarked) [Compound 116 trifluoroacetate, 3-chloro-5-(2-(4-((2-(4-((4-(1-(2,6-dioxopiperidin-3-yl)-3-methyl-2-oxo-2,3-dihydro-1H-benzo[d]imidazol-5-yl)-[1,4′-bipiperidin]-1′-yl)methyl)piperidin-1-yl)pyrimidin-4-yl)methoxy)phenyl)propan-2-yl)-2-methoxybenzonitrile]	77	67
			Cn1c(=O)n(C2CCC(=O)NC2=O)c2cccc(CN3CCC(CN4CCC(C5CCN(c6nccc(COc7ccc(C(C)(C)c8cc(Cl)c(OCCCl)c(C#N)c8)cc7)n6)CC5)CC4)CC3)c21 (centres unmarked) [Compound 126 trifluoroacetate, 3-chloro-2-(2-chloroethoxy)-5-(2-(4-((2-(1′-((1-((1-(2,6-dioxopiperidin-3-yl)-3-methyl-2-oxo-2,3-dihydro-1H-benzo[d]imidazol-4-yl)methyl)piperidin-4-yl)methyl)-[4,4′-bipiperidin]-1-yl)pyrimidin-4-yl)methoxy)phenyl)propan-2-yl)benzonitrile]	98	95
483	665 ± 264		CC(C)(c1ccc(OCc2ccnc(N3CCC(CN4CCC(C5CCN(c6ccc7c(c6)C(=O)N(C6CCC(=O)NC6=O)C7=O)CC5)CC4)C3)n2)cc1)c1cc(Cl)cc(C#N)c1 (centres unmarked) [Compound 130, 3-chloro-5-(2-(4-((2-(3-((1′-(2-(2,6-dioxopiperidin-3-yl)-1,3-dioxoisoindolin-5-yl)-[4,4′-bipiperidin]-1-yl)methyl)pyrrolidin-1-yl)pyrimidin-4-yl)methoxy)phenyl)propan-2-yl)benzonitrile]		
507	446 ± 225		CC(C)(c1ccc(OCc2ccnc(N3CCC(N4CCC(C5CCN(c6ccc7c(c6)C(=O)N(C6CCC(=O)NC6=O)C7=O)CC5)CC4)CC3)n2)cc1)c1cc(Cl)cc(C#N)c1 (centres unmarked) [Compound 131, 3-chloro-5-(2-(4-((2-(1″-(2-(2,6-dioxopiperidin-3-yl)-1,3-dioxoisoindolin-5-yl)-[4,1′:4′,4″-terpiperidin]-1-yl)pyrimidin-4-yl)methoxy)phenyl)propan-2-yl)benzonitrile]		

SMILES	IC50 (22RV1 cells) [nM]	AUC(0-t) [2] [ng·h/mL]	IC50 (22RV1 cells; Homo sapiens, 22Rv1, 168 h) [nM]	AR-FL Dmax % (maximum degradation rate) (full-length AR (AR-FL)) [%]	AR-Vs Dmax % (maximum degradation rate) [1] [%]
CC(C)(c1ccc(OCc2ccnc(N3CCC4(CCN(CC5CC6(CCN(c7ccc8c(c7)C(=O)N(C7CCC(=O)NC7=O)C8=O)CC6)C5)CC4)CC3)n2)cc1)c1cc(Cl)cc(C#N)c1 (centres unmarked) [Compound 129, 3-chloro-5-(2-(4-((2-(9-((7-(2-(2,6-dioxopiperidin-3-yl)-1,3-dioxoisoindolin-5-yl)-7-azaspiro[3.5]nonan-2-yl)methyl)-3,9-diazaspiro[5.5]undecan-3-yl)pyrimidin-4-yl)methoxy)phenyl)propan-2-yl)benzonitrile]	569	812 ± 304			
